Experimental data: publication PMC5302078 (Journal of Biomolecular Screening, 2016)

Biological target: T1, breast cancer resistance protein (BCRP) (Homo sapiens, UniProt Q9UNQ0)
T1 sequence (Q9UNQ0 1-655): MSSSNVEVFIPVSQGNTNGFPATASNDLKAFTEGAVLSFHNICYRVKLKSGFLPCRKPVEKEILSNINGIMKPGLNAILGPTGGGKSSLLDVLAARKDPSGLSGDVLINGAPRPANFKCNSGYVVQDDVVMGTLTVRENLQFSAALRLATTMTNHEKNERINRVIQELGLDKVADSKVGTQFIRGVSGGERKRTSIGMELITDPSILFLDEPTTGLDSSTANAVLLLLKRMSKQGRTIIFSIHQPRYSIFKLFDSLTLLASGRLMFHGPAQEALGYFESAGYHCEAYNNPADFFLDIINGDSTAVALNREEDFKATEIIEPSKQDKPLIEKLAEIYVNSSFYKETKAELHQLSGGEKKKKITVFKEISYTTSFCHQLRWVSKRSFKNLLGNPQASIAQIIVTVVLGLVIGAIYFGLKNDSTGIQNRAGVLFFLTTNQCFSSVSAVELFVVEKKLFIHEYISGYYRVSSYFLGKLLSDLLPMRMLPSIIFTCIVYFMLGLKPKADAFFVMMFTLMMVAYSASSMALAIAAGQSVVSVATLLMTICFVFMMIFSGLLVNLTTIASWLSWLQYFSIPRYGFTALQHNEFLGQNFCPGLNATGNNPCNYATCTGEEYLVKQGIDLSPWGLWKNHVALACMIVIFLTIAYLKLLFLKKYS
Test: mitoxantrone accumulation in BCRP-overexpressing PLB985 cells, flow cytometry
Format: cell-based

Row | Compound | IC50
1 | COc1cc(N)c(Cl)cc1C(=O)NC1CCN(CCCOc2ccc(F)cc2)CC1OC (centres unmarked) [cisapride] | 400 ± 100 nM
2 | O=C(Nc1c(Cl)cncc1Cl)c1ccc(OC(F)F)c(OCC2CC2)c1 [roflumilast] | 900 ± 200 nM
